Data taken from patent US20210393742A1, “LONG-ACTING INTERLEUKIN-15 RECEPTOR AGONIST IN COMBINATION WITH ANOTHER PHARMACOLOGICALLY ACTIVE AGENT” (Nektar Therapeutics, priority 2018, published 2021).

Assays:
Daudi B cell lymphoma [1] = assay: NK cell counts, Daudi cell counts and granzyme B in bone marrow, Daudi xenograft model, combination with daratumumab (Example 2); type: in vivo, mice
Procedure: SCID mice (N=6/group) were intravenously inoculated with 1×10^7 Daudi cells on Day 0 and treated with a single dose of the anti-human CD38 antibody, daratumumab (0.5 mg/kg IP, 14 days following Daudi cell inoculation) and two doses of mono(methoxyPEG-N-butanamide)interleukin-15 (0.3 mg/kg SC, one dose at each of 14 and 21 days after inoculation). Mice were also treated with the single agent therapies: daratumumab (0.5 mg/kg IP, 14 days following Daudi cell inoculation) or two doses of mono(methoxyPEG-N-butanamide)40 kD interleukin-15 (0.3 mg/kg SC, 14 and 21 days after inoculation).
(One-way ANOVA, Tukey's multiple comparison test).

Daudi B cell lymphoma [2] = assay: Daudi cell counts in bone marrow, low and high doses (Example 14); type: in vivo, mice; details: day 24, single agent
Procedure: SCID mice (N=6/group) were intravenously inoculated with 10 million Daudi cells on Day 0 and treated with a single dose of a lower or higher dose of daratumumab (0.05 mg/kg or 5 mg/kg IP, 14 days following Daudi cell inoculation) and two doses of either lower or higher dose mono(methoxyPEG-N-butanamide)interleukin-15 (compound 1) (0.03 mg/kg or 0.6 mg/kg intravenously, one dose at each of 14 and 21 days after inoculation). Mice were also treated with the single agent therapies: daratumumab (0.05 mg/kg or 5 mg/kg IP, 14 days following Daudi cell inoculation) or two doses of mono(methoxyPEG-N-butanamide)40 kD interleukin-15 (compound 1) (0.03 mg/kg or 0.6 mg/kg intravenously, 14 and 21 days after inoculation). Daudi cell numbers in the bone marrow were assessed three days following the second dose of mono(methoxyPEG-N-butanamide)40 kD interleukin-15 (day 24) by flow cytometry as shown in FIGS. 17A and 17B.

FaDu cells = assay: ADCC of cetuximab-coated FaDu cells by primed human NK cells (Example 20); type: cell-based; details: NK cells primed with 300 ng/mL overnight; cetuximab 300 ng/mL; E:T 10:1, 3 hours
Procedure: Human NK cells were magnetically sorted from normal donor PBMCs using negative selection. NK cells were seeded in a 96-well U-bottom plate at a density of 400,000 cells/well. NK cells were stimulated with mono(methoxyPEG-N-butanamide)40 kD interleukin-15 (Compound 1) (300 ng/mL) (+) or left unstimulated (−) in complete RPMI-1640 media supplemented with 10% fetal bovine serum (FBS) and 1% antibiotic/antimycotic overnight at 37° C. in 5% CO2.
The epithelial/pharyngeal head and neck human FaDu cells (ATCC #HTB-43) were cultured in minimal eagle's essential media (EMEM; ATCC+30-2003) supplemented with 10% fetal bovine serum (FBS) and 1% antibiotic/antimycotic at 37° C. in 5% CO2. FaDu cells were subcultured by incubating in 0.25% Trypsin-0.53 mM EDTA for 5 min at 37° C., washed in sterile PBS, resuspended in culture media, counted, and co-cultured with the NK cells using an effector:target (E:T) of 10:1. […] Following incubation, cells were washed in flow staining buffer, Fc-blocked for 15 min at 4° C., and surface-stained (CD45, CD56, CD3-fluorescently conjugated antibodies) for 20 min at 4° C. in the dark. The cells were washed in PBS and incubated in 7-aminoactinomycin (7-AAD) viability stain for 30 minutes at 4° C. before acquiring for flow cytometric analysis using a Fortessa (BD). […]

mono(methoxyPEG-N-butanamide)40 kD interleukin-15 [Conjugate 1]
granzyme B expression in bone marrow NK cells (Daudi B cell lymphoma [1]; alone or in combination with daratumumab): increase granzyme B expression | increase in NK cell count in bone marrow (Daudi B cell lymphoma [1]; day 24, agonist 0.3 mg/kg SC days 14 and 21, daratumumab 0.5 mg/kg IP day 14): 10 fold | intra-bone marrow tumor cells depleted (Daudi B cell lymphoma [2]; high dose (daratumumab 5 mg/kg; compound 1 0.6 mg/kg)): 69% | intra-bone marrow tumor cells depleted (Daudi B cell lymphoma [2]; low dose (daratumumab 0.05 mg/kg; compound 1 0.03 mg/kg)): 42% | ADCC, % 7-AAD+CD45- target cells (FaDu cells): enhance ADCC of cetuximab-coated human solid tumor cells
